Results: PubChem BioAssay (NCI)
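Each compound was tested at five concentrations against cells in 96-well plates for 48 hours. GI50 marks 50% less growth. TGI denotes the concentration required for complete inhibition of growth.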

Key:
Assay in all cases: NCI tumour cell line growth inhibition, 48 h; in the data active = GI50 below about 0.43 µM; inactive = the rest
[1] = tested on: RXF 393 renal
[2] = tested on: SK-MEL-2 melanoma
[3] = tested on: SF-539 CNS
[4] = tested on: HL-60(TB) leukemia
[5] = tested on: BT-549 breast
[6] = tested on: K-562 leukemia
[7] = tested on: HS 578T breast
[8] = tested on: A498 renal
[9] = tested on: SK-MEL-28 melanoma
[10] = tested on: SNB-19 CNS
[11] = tested on: NCI/ADR-RES ovarian
[12] = tested on: SK-MEL-5 melanoma
[13] = tested on: SF-268 CNS
[14] = tested on: U251 CNS
[15] = tested on: HOP-92 NSCLC
[16] = tested on: MDA-MB-231 breast
[17] = tested on: TK-10 renal
[18] = tested on: NCI-H460 lung
[19] = tested on: NCI-H226 lung
[20] = tested on: OVCAR-4 ovarian
[21] = tested on: KM12 colon
[22] = tested on: CCRF-CEM leukemia
[23] = tested on: OVCAR-8 ovarian
[24] = tested on: SNB-75 CNS
[25] = tested on: ACHN renal
[26] = tested on: SR leukemia
[27] = tested on: T-47D breast
[28] = tested on: UACC-62 melanoma
[29] = tested on: UO-31 renal
[30] = tested on: MOLT-4 leukemia
[31] = tested on: IGROV1 ovarian
[32] = tested on: PC-3 prostate
[33] = tested on: LOX IMVI melanoma
[34] = tested on: EKVX NSCLC
[35] = tested on: SN12C renal
[36] = tested on: NCI-H522 lung
[37] = tested on: MCF7 breast
[38] = tested on: OVCAR-5 ovarian
[39] = tested on: M14 melanoma
[40] = tested on: DU-145 prostate
[41] = tested on: SK-OV-3 ovarian
[42] = tested on: COLO 205 colon
[43] = tested on: HCT-116 colon
[44] = tested on: NCI-H23 lung
[45] = tested on: HCC-2998 colon
[46] = tested on: UACC-257 melanoma
[47] = tested on: HT29 colon
[48] = tested on: HOP-62 NSCLC
[49] = tested on: 786-0 renal
[50] = tested on: SW-620 colon
[51] = tested on: HCT-15 colon
[52] = tested on: A549 NSCLC
[53] = tested on: MALME-3M melanoma
[54] = tested on: RPMI-8226 leukemia

Cc1cn2c(/C=C3/C(=O)N(C)c4ccccc43)c(C)nc2s1
33.5 µM: TGI [45]
31.9 µM: TGI [41]
29.6 µM: TGI [18]
inactive: GI50 [1] 53.8 µM | GI50 [2] 5.33 µM | GI50 [3] 10.7 µM | GI50 [4] 2.42 µM | GI50 [5] 10.8 µM | GI50 [6] 2.23 µM | GI50 [7] 9.59 µM | GI50 [8] 11.9 µM | GI50 [9] 14.2 µM | GI50 [10] 5.51 µM | GI50 [11] 3.4 µM | GI50 [12] 4.71 µM | GI50 [13] 22.1 µM | GI50 [14] 8.08 µM | GI50 [15] 31.9 µM | GI50 [16] 18.1 µM | GI50 [17] 21.5 µM | GI50 [18] 4.06 µM | GI50 [19] 40.5 µM | GI50 [20] 21.9 µM | GI50 [21] 3.38 µM | GI50 [22] 14.5 µM | GI50 [23] 29.2 µM | GI50 [24] 4.69 µM | GI50 [25] 25.9 µM | GI50 [26] 2.48 µM | GI50 [27] 4.49 µM | GI50 [28] 12.2 µM | GI50 [29] 17.2 µM | GI50 [30] 4.84 µM | GI50 [31] 6.98 µM | GI50 [32] 16.5 µM | GI50 [33] 11.6 µM | GI50 [34] 15.8 µM | GI50 [35] 25.5 µM | GI50 [36] 5.04 µM | GI50 [37] 1.02 µM | GI50 [38] 28.6 µM | GI50 [39] 5.31 µM | GI50 [40] 27.4 µM | GI50 [41] 6.87 µM | GI50 [42] 3.93 µM | GI50 [43] 5.02 µM | GI50 [44] 16.2 µM | GI50 [45] 7.97 µM | GI50 [46] 67.8 µM | GI50 [47] 3.58 µM | GI50 [48] 30 µM | GI50 [49] 20.1 µM | GI50 [50] 4.3 µM | GI50 [51] 5.25 µM | GI50 [52] 12.8 µM | GI50 [53] 54.3 µM | GI50 [54] 17 µM
> 100 µM: TGI [1] | TGI [5] | TGI [13] | TGI [14] | TGI [15] | TGI [16] | TGI [17] | TGI [19] | TGI [20] | TGI [21] | TGI [22] | TGI [23] | TGI [25] | TGI [27] | TGI [29] | TGI [32] | TGI [33] | TGI [34] | TGI [35] | TGI [38] | TGI [39] | TGI [40] | TGI [43] | TGI [44] | TGI [46] | TGI [47] | TGI [48] | TGI [49] | TGI [50] | TGI [51] | TGI [52] | TGI [53] | TGI [54]
25.5 µM: TGI [12]
26.8 µM: TGI [30]
6.19 µM: TGI [4]
52.9 µM: TGI [3]
7.15 µM: TGI [6]
13.3 µM: TGI [37]
58.3 µM: TGI [2]
50.4 µM: TGI [7]
53.4 µM: TGI [9]
41 µM: TGI [11]
97.9 µM: TGI [28]
79.5 µM: TGI [8]
7.37 µM: TGI [26]
30.2 µM: TGI [36]
21 µM: TGI [42]
23.4 µM: TGI [24]
70.3 µM: TGI [31]
27.7 µM: TGI [10]
